Experimental data taken from publication PMC7604503, “Cyclic peptides can engage a single binding pocket through highly divergent modes” (Proceedings of the National Academy of Sciences of the …, 2020).
Where a SMILES comes first, the peptide text is derived from it. Bridges are numbered along the chain shown (N, C = ends).

Key:
BRD3-BD1 = target: T1, BRD3-BD1 (Homo sapiens, UniProt Q15059); assay: SPR binding of peptides to immobilised biotinylated BET bromodomain; settings: for Kd: gray boxed value: no reproducible signals observed at the concentrations used
T1 construct: BRD3 (BD1: 25-147); Avi tag (biotinylated); made in house; host or cells: E. coli BL21(DE3)
T1 sequence (Q15059 25-147): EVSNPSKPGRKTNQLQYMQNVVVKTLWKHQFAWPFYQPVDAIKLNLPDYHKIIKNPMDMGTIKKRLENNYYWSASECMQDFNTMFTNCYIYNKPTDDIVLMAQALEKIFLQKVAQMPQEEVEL
Source text: (§1) We next assessed the ability of each of the three lead peptides to bind BRD3-BD1. […] To assess selectivity for other BET BDs, we used SPR to determine the binding affinity of each peptide toward the remaining BDs from BRD2, BRD3, and BRD4 (Fig. 1B). […]
(§2) Crude peptides were purified by reverse-phase high-performance liquid chromatography using a Chromolith Prep column (Merck) on a Prominence LC-20AP system (Shimadzu) (Solvent A: 0.1% TFA in H2O, Solvent B: 0.1% TFA in acetonitrile) to >95% purity as determined by mass spectrometry (Fig. S17). Purified peptides were reconstituted in DMSO and concentrations determined from their absorbance at 280 nm in 5% DMSO using predicted extinction coefficients.
(§3) Surface plasmon resonance (SPR)
(§4) Measurements were conducted on a T200 or S200 (GE Healthcare) and data analysed using the Biacore Insight Evaluation Software. Experiments were performed at 4 °C in single cycle kinetics mode. Biotinylated BET bromodomains were immobilised on a CAP chip (GE Healthcare) with a […]
(§5) pH 7.5 was used as the running buffer. […]

BRD4-BD2 = target: T2, BRD4-BD2 (Homo sapiens, UniProt O60885); assay: as above
T2 construct: BRD4 (BD1: 42-168; BD2: 348-464); Avi tag (biotinylated); made in house; host or cells: E. coli BL21(DE3)
Experimental: as §1
(§6) Peptides were synthesised as C-terminal amides using standard fluorenylmethyloxycarbonyl (Fmoc)-strategy solid-phase chemistry using a Syro I automated synthesiser (Biotage) and NovaPEG Rink Amide resin (Novabiochem). Couplings were performed with HBTU/HOBt (1:1) and 6 equivalents of each amino acid. Double couplings were performed for arginine residues.
(§7) Following the final amino acid coupling reaction, the Fmoc group was removed and resin incubated with N-(chloroacetoxy)succinimide (0.2 M in DMF, 1 h, RT). Resin was washed with DMF (5 times) and DCM (5 times) and dried in vacuo.
(§8) Linear peptides were cleaved from the resin by incubation (3 h, RT) with a trifluoroacetic acid (TFA) cleavage cocktail (TFA/2,2’-(ethylenedioxy)diethanethiol/triisopropyl silane/H2O (92.5:2.5:2.5:2.5)) before filtration, concentration in vacuo and precipitation with ice-cold diethyl ether. Crude peptides were washed with diethyl ether (5 times), dried and resuspended in DMSO. The pH was raised to >8 using triethylamine to allow cyclisation. Following incubation (1 h, RT), peptides were re-acidified with TFA for purification.
as §2, §3, §4, §5

BRD2-BD2 = target: T3, BRD2-BD2 (Homo sapiens, UniProt P25440); assay: as above
T3 construct: human BRD2 (BD1: 65-194; BD2: 347-455); Avi tag (biotinylated); made in house; host or cells: E. coli BL21(DE3)
T3 sequence (P25440 347-455): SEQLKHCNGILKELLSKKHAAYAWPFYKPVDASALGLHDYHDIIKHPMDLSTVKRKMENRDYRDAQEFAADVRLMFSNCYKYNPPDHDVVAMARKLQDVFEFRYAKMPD
Source text: as §1, §2, §3, §4, §5

BRD4-BD1 = target: T4, BRD4-BD1 (Homo sapiens, UniProt O60885); assay: as above
T4 construct: BRD4 (BD1: 42-168; BD2: 348-464); Avi tag (biotinylated); made in house; host or cells: E. coli Rosetta2(DE3)
Experimental: as §1, §6, §7, §8, §2, §3, §4, §5

BRD3-BD2 = target: T5, BRD3-BD2 (Homo sapiens, UniProt Q15059); assay: as above
T5 construct: Avi tag (biotinylated); made in house; host or cells: E. coli BL21(DE3)
T5 sequence (Q15059 307-419): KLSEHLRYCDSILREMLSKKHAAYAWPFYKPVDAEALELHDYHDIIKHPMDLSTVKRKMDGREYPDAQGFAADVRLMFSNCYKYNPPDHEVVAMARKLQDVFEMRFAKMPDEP
Experimental: as §1, §6, §7, §8, §2, §3, §4, §5

BRD2-BD1 = target: T6, BRD2-BD1 (Homo sapiens, UniProt P25440); assay: as above
T6 construct: human BRD2 (BD1: 65-194; BD2: 347-455); Avi tag (biotinylated); made in house; host or cells: E. coli BL21(DE3)
T6 sequence (P25440 65-194): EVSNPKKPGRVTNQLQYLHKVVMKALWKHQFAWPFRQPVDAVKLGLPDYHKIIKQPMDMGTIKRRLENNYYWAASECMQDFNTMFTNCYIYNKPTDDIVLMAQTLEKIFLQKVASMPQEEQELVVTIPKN
Experimental: as §1, §6, §7, §8, §2, §3, §4, §5

[1] = system: BD2 domains (BRD2-BD2, BRD3-BD2, BRD4-BD2); assay: SPR binding, stated for the BD2 domains together; design: species or system human
Experimental: Measurements were conducted on a T200 or S200 (GE Healthcare) and data analysed using the Biacore Insight Evaluation Software. Experiments were performed at 4 C in single cycle kinetics mode. Biotinylated BET bromodomains were immobilised on a CAP chip (GE Healthcare) with a
pH 7.5 was used as the running buffer. Between cycles the chip was regenerated following the

[2] = system: BD1 domains (BRD2-BD1, BRD3-BD1, BRD4-BD1); assay: SPR binding, stated for the BD1 domains together; design: species or system human; settings: for reduction of affinity relative to 3.1B: all three BD1 domains
Experimental: as §1, §6, §7, §8, §2, §3, §4, §5

[3] = 4 C, geometric mean and SD of two to five measurements
[4] = gray boxed value: no reproducible signals observed at the concentrations used

CC(=O)NCCCC[C@@H]1NC(=O)[C@H](Cc2c[nH]c3ccccc23)NC(=O)CSC[C@@H](C(=O)N[C@@H](Cc2c[nH]c3ccccc23)C(=O)N[C@@H](CC(C)C)C(=O)N[C@@H](CCCCNC(C)=O)C(=O)N[C@@H](CCCNC(=N)N)C(=O)N[C@@H](CCCCNC(C)=O)C(=O)N[C@@H](CC(C)C)C(=O)N[C@@H](CC(C)C)C(=O)N[C@@H](CC(C)C)C(=O)N[C@@H](CCCNC(=N)N)C(=O)N[C@@H](CS)C(N)=O)NC(=O)[C@H](Cc2c[nH]c3ccccc23)NC(=O)[C@H](CC(N)=O)NC1=O [4.2A] ({CH2CO}-WK(Ac)NWCWLK(Ac)RK(Ac)LLLRC-NH2; thioether N-5 (inferred))
binding to BRD3-BD1, fold tighter than to BRD4-BD2 (BRD3-BD1): 10 fold
binding to BRD4-BD2, fold tighter than to other BD2 domains (BRD4-BD2): 4- to 8 fold

CC[C@H](C)[C@@H]1NC(=O)[C@H](CO)NC(=O)[C@@H]2CCCN2C(=O)[C@H](CCCCNC(C)=O)NC(=O)[C@H](CCCNC(=N)N)NC(=O)[C@H](Cc2c[nH]c3ccccc23)NC(=O)[C@H](CCCCNC(C)=O)NC(=O)[C@H](CC(C)C)NC(=O)[C@H](CCCNC(=N)N)NC(=O)[C@H]([C@@H](C)CC)NC(=O)[C@H]([C@@H](C)O)NC(=O)[C@H](Cc2c[nH]cn2)NC(=O)[C@H](Cc2ccc(O)cc2)NC(=O)[C@H](C)NC(=O)[C@H](Cc2c[nH]c3ccccc23)NC(=O)CSC[C@@H](C(N)=O)NC(=O)[C@H](CO)NC1=O [4.2B] ({CH2CO}-WAYHTIRLK(Ac)WRK(Ac)PSISC-NH2; thioether N-17)
Kd (BRD2-BD2; [3]): 0.0027 ± 0.006 µM
Kd (BRD3-BD1): > 10 µM
Kd (BRD4-BD1; [4]): > 10 µM
Kd (BRD4-BD2; [3]): 0.0011 ± 4e-05 µM
Kd (BRD3-BD2; [3]): 0.016 ± 0.011 µM
Kd (BRD2-BD1; [3]): 0.022 ± 2.8e-05 µM
selectivity for BD2 domains over BD1 domains (in words) [1]: significant selectivity

CC[C@H](C)[C@@H]1NC(=O)[C@H](Cc2c[nH]c3ccccc23)NC(=O)[C@H]([C@@H](C)CC)NC(=O)[C@H](CCCNC(=N)N)NC(=O)[C@H]([C@@H](C)O)NC(=O)[C@H](CC(C)C)NC(=O)[C@H](CCCCNC(C)=O)NC(=O)[C@H]([C@@H](C)O)NC(=O)[C@H](Cc2c[nH]c3ccccc23)NC(=O)[C@H](CCCNC(=N)N)NC(=O)[C@H](CC(C)C)NC(=O)[C@H](Cc2ccc(O)cc2)NC(=O)[C@H]([C@@H](C)O)NC(=O)[C@H](Cc2c[nH]c3ccccc23)NC(=O)CSC[C@@H](C(N)=O)NC(=O)[C@H](CO)NC1=O [3.1A] ({CH2CO}-WTYLRWTK(Ac)LTRIWISC-NH2; thioether N-16)
interaction with BRD2-BD1 (in words) (BRD2-BD1): no observable interaction

CC[C@H](C)[C@@H]1NC(=O)[C@H](C)NC(=O)[C@H](CCCCN)NC(=O)[C@H](CCCCNC(C)=O)NC(=O)[C@H](Cc2c[nH]c3ccccc23)NC(=O)CSC[C@@H](C(N)=O)NC(=O)[C@H]([C@@H](C)CC)NC(=O)[C@H](Cc2c[nH]cn2)NC(=O)[C@H](CC(C)C)NC(=O)[C@H]([C@@H](C)O)NC(=O)[C@H](CCCCN)NC(=O)[C@H](CC(C)C)NC(=O)[C@H]([C@@H](C)CC)NC(=O)[C@H](CCCCNC(C)=O)NC(=O)CNC(=O)[C@@H]2CCCN2C(=O)[C@H](CC(C)C)NC1=O [3.2A] ({CH2CO}-WK(Ac)KAILPGK(Ac)ILKTLHIC-NH2; thioether N-17)
Kd (BRD2-BD2; [4]): > 10 µM
Kd (BRD3-BD1): > 10 µM
Kd (BRD4-BD1; [3]): 0.0089 ± 0.02 µM
Kd (BRD4-BD2; [4]): > 10 µM
binding to BRD3-BD2 (in words) (BRD3-BD2): strong binding was not observed
Kd (BRD3-BD2; [4]): > 10 µM
Kd (BRD2-BD1; [4]): > 10 µM

CC[C@H](C)[C@@H]1NC(=O)[C@H]([C@@H](C)O)NC(=O)[C@H](CCCCN)NC(=O)[C@H](Cc2c[nH]c3ccccc23)NC(=O)CSC[C@@H](C(N)=O)NC(=O)[C@H](CCC(N)=O)NC(=O)[C@H](CCCCNC(C)=O)NC(=O)[C@H]([C@@H](C)O)NC(=O)[C@H](CCCNC(=N)N)NC(=O)[C@H](Cc2c[nH]c3ccccc23)NC(=O)[C@H]([C@@H](C)O)NC(=O)[C@H](C)NC(=O)CNC(=O)[C@H](CCCCNC(C)=O)NC1=O [AcK7→Ala] ({CH2CO}-WKTIK(Ac)GATWRTK(Ac)QC-NH2; thioether N-14)
reduction of affinity relative to 3.1B [2]: fourfold

CC[C@H](C)[C@@H]1NC(=O)[C@H](CCCCN)NC(=O)[C@H](CC(C)C)NC(=O)CNC(=O)[C@H](Cc2ccc(O)cc2)NC(=O)[C@H](CCCCNC(C)=O)NC(=O)[C@H](CCCCN)NC(=O)[C@H](Cc2c[nH]c3ccccc23)NC(=O)[C@H](CCC(N)=O)NC(=O)[C@H](CCCCNC(C)=O)NC(=O)[C@H](Cc2c[nH]c3ccccc23)NC(=O)CSC[C@@H](C(N)=O)NC1=O [3.2C] ({CH2CO}-WK(Ac)QWKK(Ac)YGLKIC-NH2; thioether N-12)
binding to BD1 domains (in words) [2]: did not bind strongly
selectivity between BD2 and BD1 domains [1]: 10- to 100 fold
Kd ([1]; read-out: affinities for the BD2 domains): 0.01 to 0.1 µM

CC[C@H](C)[C@@H]1NC(=O)[C@H]([C@@H](C)O)NC(=O)[C@H](CCCCN)NC(=O)[C@H](Cc2c[nH]c3ccccc23)NC(=O)CSC[C@@H](C(N)=O)NC(=O)[C@H](CCC(N)=O)NC(=O)[C@H](CCCCNC(C)=O)NC(=O)[C@H]([C@@H](C)O)NC(=O)[C@H](CCCNC(=N)N)NC(=O)[C@H](Cc2c[nH]c3ccccc23)NC(=O)[C@H]([C@@H](C)O)NC(=O)[C@H](CCCCNC(C)=O)NC(=O)CNC(=O)[C@H](C)NC1=O [AcK5→Ala] ({CH2CO}-WKTIAGK(Ac)TWRTK(Ac)QC-NH2; thioether N-14)
reduction of affinity relative to 3.1B [2]: ~80 fold
